The term IC50 denotes the concentration at which inhibition is half-maximal.

Each structure is given as a SMILES string.

Series [1] has as its system Liver microsomes. Description: Metabolic stability in human liver microsomes at 1 uM after 60 mins by LC/MS/MS analysis. The settings on record: 1 h.
A short description of series [2]: Modulation of gamma secretase in CHO-2B7 cells assessed as reduction in amyloid beta 40 level after 5 hrs by MSD ELISA. The class given is cell-based. The conditions noted are these: Cricetulus griseus, CHO-2B7, 5 h. Background: ELISA stands for enzyme-linked immunosorbent assay.
Series [3] can be described thus: Modulation of gamma secretase in CHO-2B7 cells assessed as reduction in amyloid beta 42 level after 5 hrs by MSD ELISA. The settings on record: Cricetulus griseus, CHO-2B7, 5 h. The class given is cell-based.

Turning to `CC(C)[C@@H](OC(=O)N1CCC1)[C@H]1C[C@@H](C)[C@H]2[C@H](O1)[C@H](O)[C@@]1(C)[C@@H]3CC[C@H]4C(C)(C)[C@@H](O[C@H]5CN(C)CCO5)CC[C@@]45C[C@@]35CC[C@]21C`, the Stability result in series [1] is reported as “Stable”. Further, the IC50 in series [2] was 8400 nM; in series [3], 770 nM.

For `CCO[C@@H]([C@H]1C[C@@H](C)[C@H]2[C@H](O1)[C@H](O)[C@@]1(C)[C@@H]3CC[C@H]4C(C)(C)[C@@H](O[C@H]5CN(CCN6CCOC6=O)CCO5)CC[C@@]45C[C@@]35CC[C@]21C)C(C)(C)O`, the Stability result in series [1] is “Stable”. In addition, the 50% inhibitory concentration (IC50) in series [2] came out at 1900 nM; in series [3] it was 150 nM.

Turning to `CC(C)C(=O)N1CCO[C@@H](O[C@H]2CC[C@]34C[C@]35CC[C@]3(C)[C@@H]6[C@H](O[C@@H]([C@H](OC(=O)N7CCC7)C(C)C)C[C@H]6C)[C@H](O)[C@@]3(C)[C@@H]5CC[C@H]4C2(C)C)C1`, in series [1], the Stability result is on record as “Stable”. Moreover, the results for the half-inhibitory concentration (IC50) in series [2] and in series [3] were 11000 nM and 400 nM, respectively.

On to `CCO[C@@H]([C@H]1C[C@@H](C)[C@H]2[C@H](O1)[C@H](O)[C@@]1(C)[C@@H]3CC[C@H]4C(C)(C)[C@@H](OC(=O)NC5CN(C)C5)CC[C@@]45C[C@@]35CC[C@]21C)C(C)(C)O`, for which the Stability result in series [1] was “Stable”. Further, the IC50 in series [2] came out at 980 nM; in series [3], 65 nM.

With `CNC(=O)O[C@H]1CC[C@]23C[C@]24CC[C@]2(C)[C@@H]5[C@H](O[C@@H]([C@H](OC(=O)N6CCC6)C(C)C)C[C@H]5C)[C@H](O)[C@@]2(C)[C@@H]4CC[C@H]3C1(C)C`, the Stability result in series [1] was “Stable”. Further, the concentration for half-maximal inhibition (IC50) was 8700 nM in series [2] and 760 nM in series [3].

For the compound `CCO[C@@H]([C@H]1C[C@@H](C)[C@H]2[C@H](O1)[C@H](O)[C@@]1(C)[C@@H]3CC[C@H]4C(C)(C)[C@@H](OC(=O)N5CC[C@H](C(=O)O)C5)CC[C@@]45C[C@@]35CC[C@]21C)C(C)(C)O`, the Stability result in series [1] was “Stable”. Also, the half-inhibitory concentration (IC50) in series [2] was 17000 nM; in series [3], 400 nM.

In the case of `CC(C)[C@@H](OC(=O)N1CCC1)[C@H]1C[C@@H](C)[C@H]2[C@H](O1)[C@H](O)[C@@]1(C)[C@@H]3CC[C@H]4C(C)(C)[C@@H](O[C@H]5CN(CCCC(=O)O)CCO5)CC[C@@]45C[C@@]35CC[C@]21C`, the Stability result in series [1] is recorded as “Stable”. Moreover, the IC50 in series [2] worked out at 7500 nM; in series [3], 280 nM.

As for `CCO[C@@H]([C@H]1C[C@@H](C)[C@H]2[C@H](O1)[C@H](O)[C@@]1(C)[C@@H]3CC[C@H]4C(C)(C)[C@@H](O[C@H]5CN(C(=O)CC6CNC6)CCO5)CC[C@@]45C[C@@]35CC[C@]21C)C(C)(C)O`, the Stability entry in series [1] is listed as “Stable”. The 50% inhibitory concentration (IC50) in series [2] came to 2500 nM; in series [3], 120 nM.

With `CCO[C@@H]([C@H]1C[C@@H](C)[C@H]2[C@H](O1)[C@H](O)[C@@]1(C)[C@@H]3CC[C@H]4C(C)(C)[C@@H](OC(=O)N[C@@H]5CCNC5=O)CC[C@@]45C[C@@]35CC[C@]21C)C(C)(C)O`, in series [1], the Stability result is reported as “Stable”. The concentration for half-maximal inhibition (IC50) was determined as 2500 nM in series [2] and 140 nM in series [3].

Turning to `CCO[C@@H]([C@H]1C[C@@H](C)[C@H]2[C@H](O1)[C@H](O)[C@@]1(C)[C@@H]3CC[C@H]4C(C)(C)[C@@H](OC(=O)NC5COC5)CC[C@@]45C[C@@]35CC[C@]21C)C(C)(C)O`, the Stability result in series [1] is “Stable”. For the same compound, the figures for the IC50 in series [2] and in series [3] were 5000 nM and 140 nM, respectively.

For the compound `CCO[C@@H]([C@H]1C[C@@H](C)[C@H]2[C@H](O1)[C@H](O)[C@@]1(C)[C@@H]3CC[C@H]4C(C)(C)[C@@H](O[C@H]5CN(C(=O)CC6CN(C)C6)CCO5)CC[C@@]45C[C@@]35CC[C@]21C)C(C)(C)O`, the Stability result in series [1] is given as “Stable”. Moreover, the IC50 is 3100 nM in series [2] and 150 nM in series [3].

As to `CC(C)[C@@H](OC(=O)N1CCC1)[C@H]1C[C@@H](C)[C@H]2[C@H](O1)[C@H](O)[C@@]1(C)[C@@H]3CC[C@H]4C(C)(C)[C@@H](OC(=O)NCC(=O)O)CC[C@@]45C[C@@]35CC[C@]21C`, in series [1], the Stability result was “Stable”. In addition, the IC50 in series [2] was determined as 7200 nM; in series [3], 420 nM.

Take `CCO[C@@H]([C@H]1C[C@@H](C)[C@H]2[C@H](O1)[C@H](O)[C@@]1(C)[C@@H]3CC[C@H]4C(C)(C)[C@@H](O[C@H]5CN(CCN6CCC6)CCO5)CC[C@@]45C[C@@]35CC[C@]21C)C(C)(C)O`: the Stability result in series [1] was “Stable”. The results for the IC50 in series [2] and in series [3] were 2900 nM and 110 nM, respectively.

Turning to `CCO[C@@H]([C@H]1C[C@@H](C)[C@H]2[C@H](O1)[C@H](O)[C@@]1(C)[C@@H]3CC[C@H]4C(C)(C)[C@@H](O[C@H]5CN(C6CCOCC6)CCO5)CC[C@@]45C[C@@]35CC[C@]21C)C(C)(C)O`, the Stability entry in series [1] was “Stable”. Also, the IC50 in series [2] turned out to be 5000 nM; in series [3] it was 350 nM.

As for `CCO[C@@H]([C@H]1C[C@@H](C)[C@H]2[C@H](O1)[C@H](O)[C@@]1(C)[C@@H]3CC[C@H]4C(C)(C)[C@@H](O[C@H]5CN([C@@H]6CCOC6)CCO5)CC[C@@]45C[C@@]35CC[C@]21C)C(C)(C)O`, the Stability entry in series [1] was “Stable”. The figures for the half-maximal inhibitory concentration (IC50) in series [2] and in series [3] were 3000 nM and 180 nM, respectively.

Consider `CC(=O)O[C@@H]([C@H]1C[C@@H](C)[C@H]2[C@H](O1)[C@H](O)[C@@]1(C)[C@@H]3CC[C@H]4C(C)(C)[C@@H](O)CC[C@@]45C[C@@]35CC[C@]21C)C(C)(C)O`, for which the 50% inhibitory concentration (IC50) in series [3] is 600 nM.

Take `CCO[C@@H]([C@H]1C[C@@H](C)[C@H]2[C@H](O1)[C@H](O)[C@@]1(C)[C@@H]3CC[C@H]4C(C)(C)[C@@H](O[C@H]5CN(C6(C)COC6)CCO5)CC[C@@]45C[C@@]35CC[C@]21C)C(C)(C)O`: the Stability entry in series [1] is recorded as “Stable”. Further, the IC50 in series [2] turned out to be 5800 nM; in series [3], 400 nM.

`CC(C)[C@@H](OC(=O)N1CCC1)[C@H]1C[C@@H](C)[C@H]2[C@H](O1)[C@H](O)[C@@]1(C)[C@@H]3CC[C@H]4C(C)(C)[C@@H](OC(=O)N5CC(NCC(F)(F)F)C5)CC[C@@]45C[C@@]35CC[C@]21C`: in series [1], the Stability result was “Stable”. Moreover, the IC50 in series [2] was determined as 11000 nM; in series [3], 750 nM.

In the case of `CC(C)[C@@H](OC(=O)N1CCC1)[C@H]1C[C@@H](C)[C@H]2[C@H](O1)[C@H](O)[C@@]1(C)[C@@H]3CC[C@H]4C(C)(C)[C@@H](OC(=O)NC5CN(C)C5)CC[C@@]45C[C@@]35CC[C@]21C`, in series [1], the Stability entry was “Stable”. The half-maximal inhibitory concentration (IC50) in series [2] was found to be 6500 nM; in series [3], 170 nM.

Regarding `CCO[C@@H]([C@H]1C[C@@H](C)[C@H]2[C@H](O1)[C@H](O)[C@@]1(C)[C@@H]3CC[C@H]4C(C)(C)[C@@H](O[C@H]5CN(CCN6CCOCC6)CCO5)CC[C@@]45C[C@@]35CC[C@]21C)C(C)(C)O`, the Stability entry in series [1] is “Stable”. In addition, the 50% inhibitory concentration (IC50) in series [2] was 1300 nM; in series [3], 430 nM.

Consider `CC(C)[C@@H](OC(=O)N1CCC1)[C@H]1C[C@@H](C)[C@H]2[C@H](O1)[C@H](O)[C@@]1(C)[C@@H]3CC[C@H]4C(C)(C)[C@@H](OC(=O)NCCNS(=O)(=O)C(F)(F)F)CC[C@@]45C[C@@]35CC[C@]21C`, for which the Stability entry in series [1] is listed as “Stable”. Moreover, the values for the half-inhibitory concentration (IC50) in series [2] and in series [3] were 11000 nM and 1500 nM, respectively.

`CCO[C@@H]([C@H]1C[C@@H](C)[C@H]2[C@H](O1)[C@H](O)[C@@]1(C)[C@@H]3CC[C@H]4C(C)(C)[C@@H](O[C@H]5CN(C(=O)C(C)C)CCO5)CC[C@@]45C[C@@]35CC[C@]21C)C(C)(C)O`: the Stability entry in series [1] is given as “Stable”. Besides, the figures for the half-maximal inhibitory concentration (IC50) in series [2] and in series [3] were 3500 nM and 170 nM, respectively.

As to `CCO[C@@H]([C@H]1C[C@@H](C)[C@H]2[C@H](O1)[C@H](O)[C@@]1(C)[C@@H]3CC[C@H]4C(C)(C)[C@@H](OC(=O)NCCN(C)C)CC[C@@]45C[C@@]35CC[C@]21C)C(C)(C)O`, the Stability result in series [1] was “Stable”. Besides, the figures for the IC50 in series [2] and in series [3] were 17000 nM and 240 nM, respectively.

As for `COCCN1CCO[C@@H](O[C@H]2CC[C@]34C[C@]35CC[C@]3(C)[C@@H]6[C@H](O[C@@H]([C@H](OC(=O)N7CCC7)C(C)C)C[C@H]6C)[C@H](O)[C@@]3(C)[C@@H]5CC[C@H]4C2(C)C)C1`, the Stability result in series [1] was “Stable”. Further, the IC50 in series [2] turned out to be 5200 nM; in series [3] it was 530 nM.

On to `C[C@@H]1C[C@H]([C@H](O)C(C)(C)O)O[C@H]2[C@H]1[C@@]1(C)CC[C@@]34C[C@@]35CC[C@H](OC(=O)N3CCC3)C(C)(C)[C@@H]5CC[C@H]4[C@]1(C)[C@H]2O`, for which the half-maximal inhibitory concentration (IC50) in series [3] stood at 13000 nM.

As to `C[C@@H]1C[C@H]([C@H](O)C(C)(C)O)O[C@H]2[C@H]1[C@@]1(C)CC[C@@]34C[C@@]35CC[C@H](OC(=O)NCCN(C)C)C(C)(C)[C@@H]5CC[C@H]4[C@]1(C)[C@H]2O`, the concentration for half-maximal inhibition (IC50) in series [3] worked out at 5700 nM.

As for `C[C@@H]1C[C@H]([C@H](O)C(C)(C)O)O[C@H]2[C@H]1[C@@]1(C)CC[C@@]34C[C@@]35CC[C@H](OC(=O)NC3CN6CCC3CC6)C(C)(C)[C@@H]5CC[C@H]4[C@]1(C)[C@H]2O` (some centres undefined), the half-inhibitory concentration (IC50) in series [3] was found to be 580 nM.

`C[C@@H]1C[C@H]([C@H](O)C(C)(C)O)O[C@H]2[C@H]1[C@@]1(C)CC[C@@]34C[C@@]35CC[C@H](OC(=O)N3CCOCC3)C(C)(C)[C@@H]5CC[C@H]4[C@]1(C)[C@H]2O`: in series [3], the IC50 amounted to 9000 nM.

For the origin of these results see ChEMBL document CHEMBL2203235, “Optimization of a natural product-based class of γ-secretase modulators” (J Med Chem, 2012).
